Data published in ChEMBL document CHEMBL1138342, “Dual inhibitors of inosine monophosphate dehydrogenase and histone deacetylases for cancer treatment” (J Med Chem, 2007).
Activity calls are given as the source filed them. The rule behind the calls is not given here.

Experiments:
[1] = target: Inosine-5'-monophosphate dehydrogenase 1 (Homo sapiens, UniProt P20839); experiment: Inhibition of human IMPDH 1
[2] = target: Inosine-5'-monophosphate dehydrogenase 2 (Homo sapiens, UniProt P12268); experiment: Inhibition of human IMPDH 2
Histone deacetylase = format: protein assay, Homo sapiens
K562 [3] = experiment: cells; format: functional, cell-based; settings: Homo sapiens, K562, 72 h
K562 [4] = experiment: Differentiation of K562 cells at 0.005 uM after 5 days by […]; format: functional, Homo sapiens
K562 [5] = experiment: Differentiation of K562 cells at 0.25 uM after 5 days by […]; format: functional, Homo sapiens
K562 [6] = experiment: Differentiation of K562 cells at 0.50 uM after 5 days by […]; format: functional, Homo sapiens

Row | Compound | Ki [1] [nM] | Ki [2] [nM] | IC50 (Histone deacetylase) [µM] | IC50 (K562 [3]) [µM] | Activity [1] | Activity [2] | Activity (K562 [4]) [%] | Activity (K562 [5]) [%] | Activity (K562 [6]) [%]
1 | COc1c(C)c2c(c(O)c1C/C=C(\C)CCC(=O)Nc1ccccc1N)C(=O)OC2 | 2830 | 650 | > 100 | 60 | – | – | – | – | –
2 | COc1c(C)c2c(c(OC)c1C/C=C(\C)CCC(=O)NO)C(=O)OC2 | – | – | 14 | 42.3 | inactive | inactive | – | – | –
3 | COc1cc(NC(=O)CCCCCCC(=O)NO)ccc1-c1cnco1 | 5000 | 1700 | 0.06 | 0.29 | – | – | 87.8 | – | –
4 | COc1c(C)c2c(c(O)c1C/C=C(\C)CCC(=O)NO)C(=O)OC2 [MYCOPHENOLIC HYDROXAMIC ACID] | 70 | 30 | 5 | 4.8 | – | – | – | 75 | –
5 | COc1c(C)c2c(c(O)c1C/C=C(\C)CCCC(=O)NO)C(=O)OC2 | 400 | 1100 | 10.4 | 10.8 | – | – | – | – | –
6 | COc1c(C)c2c(c(O)c1CCC(C)CCC(=O)NO)C(=O)OC2 (stereo not given) | 2070 | 540 | 20.1 | 44.7 | – | – | – | – | –
7 | COc1c(C)c2c(c(O)c1C/C=C(\C)CCC(=O)O)C(=O)OC2 [MYCOPHENOLIC ACID] | – | – | – | – | – | – | – | 46.4 | –
8 | O=C(CCCCCCC(=O)Nc1ccccc1)NO [VORINOSTAT] | – | – | – | – | inactive | inactive | – | – | 47.4
